Tested on: Staphylococcus aureus USA 300 (LAC)
Test: MIC assay
Type: cell-based
Method: MIC determinations and killing assays were performed in Mueller Hinton Broth (MHB; Roth, Karlsruhe, Germany).
S. aureus RN4220, S. aureus USA300 (LAC), S. aureus USA300 (NRS384), S. aureus SA113, S. aureus Mu50, E. coli DH5α and P. aeruginosa PAO1 were grown overnight in MHB. […] All strains were incubated at 37° C. under continuous shaking. Early log-phase grown bacteria were adjusted in MHB to 1×10^6 cells/well in microtiter plates (MTP), mixed with varying concentrations of the antibiotic and incubated at 37° C. for 24 h under continuous shaking. […] The assays were performed in 96-well microtiter plates.
MIC assays for the antibiotics used in this study were performed as described above. […] Fresh MHB was inoculated 1:10,000 with an overnight culture of S. aureus USA300 LAC and was incubated at 37° C. under continuous shaking. Cells were grown to early log phase, adjusted to 1×10^6 cells/mL, and dispensed into 96-well MTPs with 100 μL per well. […] After 24 h incubation at 37° C. under continuous shaking, growth was determined with a microplate reader at an OD600 and cells from the second highest concentration of 0.25×MIC, 0.5×MIC, 1×MIC, 1.5×MIC, 2×MIC and 4×MIC from the appropriate antibiotic.

CO[C@H]1/C=C/O[C@@]2(C)Oc3c(C)c(O)c4c(O)c(c(/C=N/N5CCN(C)CC5)c(O)c4c3C2=O)NC(=O)/C(C)=C\C=C\[C@H](C)[C@H](O)[C@@H](C)[C@@H](O)[C@@H](C)[C@H](OC(C)=O)[C@@H]1C [rifampicin]
1×MIC against S. aureus USA300: 0.01 mg/L
